Values of other authors, collected in US20210235730A1, “FOOD PROTECTION OF FRUIT, CEREAL AND VEGETABLE AND DERIVATIVES” (Hawei Technologies Co., Ltd., priority 2018, published 2021).

Experiments:
moulds and yeasts = settings: raw pork, heat-treated and pasteurised
[1] = tested on: coliform microorganisms and arerobic spore-forming microorganisms; settings: raw pork, heat-treated and pasteurised

N=C(N)N [guanidium]
effect on growth of moulds and yeasts (moulds and yeasts): has an effect on the growth
effect on coliform and aerobic spore-forming microorganisms [1]: not significantly influenced
